This note sets out measurements from patent publication US20230203043A1, “NOVEL IMIDAZOPYRAZINE DERIVATIVES” (Hoffmann-La Roche Inc., priority 2020, published 2023).

One may read the IC90 as the concentration at which the effect reaches the 90% level.

Where a name gives a salt, the structure may show the parent alone.

One assay deals with Acinetobacter baumannii ATCC17961. Briefly: Antimicrobial susceptibility testing: 90% growth inhibitory concentration (IC90) determination in Iso-Sensitest broth, OD600 growth. It counts as cell-based. Conditions: Acinetobacter baumannii, ATCC17961, 16 h, read-out: A. baumannii ATCC 17961 IC90 (uM), strain ATCC 17961, OD600 growth over 16 h. In short, it runs like this: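 Compounds were twofold serially diluted in DMSO across 10 points (e.g. 50 to 0.097 μM final) and inoculated at ~5×10^(5) CFU/ml. Plates incubated at 35±2° C, with OD600 read every 20 minutes over 16 h. IC90 was derived from growth inhibition during logarithmic growth.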
`CCc1cc(Nc2nccn3c(-c4c[nH]nc4C(F)(F)F)cnc23)ccc1C(=O)NCCCNC(=O)[C@@H](N)CCCCN` [Example 195, N-[3-[[(2S)-2,6-diaminohexanoyl]amino]propyl]-2-ethyl-4-[[3-[3-(trifluoromethyl)-1H-pyrazol-4-yl]imidazo[1,2-a]pyrazin-8-yl]amino]benzamide formate]: the IC90 was determined as 0.331 µM.

For `N#CCn1cc(-c2cnc3c(Nc4ccc(C(=O)NCC(=O)N5CC[C@@H](N)C5)c(Cl)c4)nccn23)c(C(F)(F)F)n1` [Example 663, N-[2-[(3R)-3-aminopyrrolidin-1-yl]-2-oxo-ethyl]-2-chloro-4-[[3-[1-(cyanomethyl)-3-(trifluoromethyl)pyrazol-4-yl]imidazo[1,2-a]pyrazin-8-yl]amino]benzamide formate], the 90% effect concentration (IC90) amounted to 0.285 µM.

For the molecule `CCc1cc(Nc2nccn3c(-c4cn(CC(F)F)nc4C(F)(F)F)cnc23)ccc1C(=O)N1CC2CC1CN2` (stereo not drawn) [Example 561, (2,5-diazabicyclo [2.2.1]heptan-2-yl)(4-((3-(1(2,2-difluoroethyl)-3-(trifluoromethyl)-1H-pyrazol-4-yl)imidazo[1,2-a]pyrazin-8-yl)amino)-2-ethylphenyl) methanone formate], the IC90 amounted to 0.909 µM.

With `CCc1cc(Nc2nccn3c(-c4cn(CC#N)nc4C(F)(F)F)cnc23)ccc1C(=O)NOCCN` [Example 228, N-(2-aminoethoxy)-4-[[3-[1-(cyanomethyl)-3-(trifluoromethyl)pyrazol-4-yl]imidazo[1,2-a]pyrazin-8-yl]amino]-2-ethylbenzamide formate], the IC90 turned out to be 0.409 µM.

`Cc1cc(Nc2nccn3c(-c4cn(CC#N)nc4C(F)(F)F)cnc23)ccc1C(=O)N1CCN(C(=O)[C@@H]2C[C@@H](O)CN2)CC1` [Example 422, formic acid; 2-[4-[8-[4-[4-[(2S,4R)-4-hydroxypyrrolidine-2-carbonyl]piperazine-1-carbonyl]-3-methylanilino]imidazo[1,2-a]pyrazin-3-yl]-3-(trifluoromethyl)pyrazol-1-yl]acetonitrile]: the IC90 was 0.63 µM.

As to `CCc1cc(Nc2nccn3c(-c4cn(CC#N)nc4C(F)(F)F)cnc23)ccc1C(=O)NCCNC(=O)CN` [Example 620, N-(2-(2-aminoacetamido)ethyl)-4-((3-(1-(cyanomethyl)-3-(trifluoromethyl)-1H-pyrazol-4-yl)imidazo[1,2-a]pyrazin-8-yl)amino)-2-ethylbenzamide formate], the concentration for an effect of 90% (IC90) was found to be 0.139 µM.

The same assay, now with this note: Acinetobacter baumannii, ATCC17961, 16 h, strain ATCC 17961, OD600 growth over 16 h, read-out: A. baumannii ATCC 17961 IC90.
Regarding `C=CCn1cc(-c2cnc3c(Nc4cc(C)c(C(=O)N5CCN(C(=O)[C@H]6CC[C@H](O)N6)CC5)c(F)c4)nccn23)c(C(F)(F)F)n1` [Example 629, (4-(4-((3-(1-allyl-3-(trifluoromethyl)-1H-pyrazol-4-yl)imidazo[1,2-a]pyrazin-8-yl)amino)-2-fluoro-6-methylbenzoyl)piperazin-1-yl)((2R,5S)-5-hydroxypyrrolidin-2-yl)methanone], the 90% effect concentration (IC90) stood at 0.198 µM.

`Cc1cc(Nc2nccn3c(-c4c[nH]nc4C(F)(F)F)cnc23)cc(F)c1C(=O)N[C@H](C)CN` [Example 83, N-[(2R)-1-aminopropan-2-yl]-2-fluoro-6-methyl-4-[[3-[3-(trifluoromethyl)-1H-pyrazol-4-yl]imidazo[1,2-a]pyrazin-8-yl]amino]benzamide]: the IC90 was determined as 2.46 µM.

For the molecule `CCc1cc(Nc2nccn3c(-c4cn(CCF)nc4C(F)F)cnc23)ccc1C(=O)N1CCN(C(=O)CN)CC1` [Example 788, 2-amino-1-(4-(4-((3-(3-(difluoromethyl)-1-(2-fluoroethyl)-1H-pyrazol-4-yl)imidazo[1,2-a]pyrazin-8-yl)amino)-2-ethylbenzoyl)piperazin-1-yl)ethan-1-one], the IC90 was 1.6 µM.

On to `NCCOCCNC(=O)c1ccc(Nc2nccn3c(-c4cn(CCF)nc4C(F)(F)F)cnc23)cc1Cl` [Example 250, N-[2-(2-aminoethoxy)ethyl]-2-chloro-4-[[3-[1-(2-fluoroethyl)-3-(trifluoromethyl)pyrazol-4-yl]imidazo[1,2-a]pyrazin-8-yl]amino]benzamide], for which the IC90 was determined as 0.084 µM.

Consider `N#CCn1cc(-c2cnc3c(Nc4ccc(C(=O)N5CCC(NC(=O)N[C@H]6CCNC6)CC5)c(Cl)c4)nccn23)c(C(F)(F)F)n1` [Example 11, 1-[1-[2-chloro-4-[[3-[1-(cyanomethyl)-3-(trifluoromethyl)pyrazol-4-yl]imidazo[1,2-a]pyrazin-8-yl]amino]benzoyl]piperidin-4-yl]-3-[(3S)-pyrrolidin-3-yl]urea], for which the IC90 amounted to 0.204 µM.

On to `C=CCNCCCNC(=O)c1ccc(Nc2nccn3c(-c4c[nH]nc4C(F)(F)F)cnc23)cc1CC` [Example 196, 2-ethyl-N-[3-(prop-2-enylamino)propyl]-4-[[3-[3-(trifluoromethyl)-1H-pyrazol-4-yl]imidazo[1,2-a]pyrazin-8-yl]amino]benzamide], for which the IC90 is 0.674 µM.

Regarding `Cc1cc(Nc2nccn3c(-c4cn(CC(F)F)nc4C(F)(F)F)cnc23)cc(F)c1C(=O)N[C@H](C)CNC(=O)C1CCNCC1` [Example 705, (R)-N-(2-(4-((3-(1-(2,2-difluoroethyl)-3-(trifluoromethyl)-1H-pyrazol-4-yl)imidazo[1,2-a]pyrazin-8-yl)amino)-2-fluoro-6-methylbenzamido)propyl)piperidine-4-carboxamide], the IC90 was determined as 0.391 µM.

As for `O=C(c1ccc(Nc2nccn3c(-c4c[nH]nc4C(F)(F)F)cnc23)cc1Cl)N1CCN(C(=O)[C@H]2[C@@H]3CNC[C@@H]32)CC1` [Example 516, (4-((1R,5S,6r)-3-azabicyclo[3.1.0]hexane-6-earbonyl)piperazin-1-yl) (2-chloro-4-((3-(3-(trifluoromethyl)-1H-pyrazol-4-yl)imidazo[1,2-a]pyrazin-8-yl)amino)phenyl)methanone formate], the IC90 amounted to 0.14 µM.

Consider `CCc1cc(Nc2nccn3c(-c4cn(CCF)nc4C(F)(F)F)cnc23)ccc1C(=O)NCCOC[C@@H](C)N` [Example 150, N-[2-[(2R)-2-aminopropoxy]ethyl]-2-ethyl-4-[[3-[1-(2-fluoroethyl)-3-(trifluoromethyl)pyrazol-4-yl]imidazo[1,2-a]pyrazin-8-yl]amino]benzamide], for which the IC90 was determined as 0.173 µM.

For `CCc1cc(Nc2nccn3c(-c4cn(CC(F)F)nc4C(F)F)cnc23)ccc1C(=O)NCCOCCN` [Example 122, N-[2-(2-aminoethoxy)ethyl]-4-[[3-[1-(2,2-difluoroethyl)-3-(difluoromethyl)pyrazol-4-yl]imidazo[1,2-a]pyrazin-8-yl]amino]-2-ethylbenzamide], the IC90 worked out at 0.208 µM.

For `C#CCNCCCNC(=O)c1c(C)cc(Nc2nccn3c(-c4c[nH]nc4C(F)(F)F)cnc23)cc1F` [Example 85, 2-fluoro-6-methyl-N-[3-(prop-2-ynylamino)propyl]-4-[[3-[3-(trifluoromethyl)-1H-pyrazol-4-yl]imidazo[1,2-a]pyrazin-8-yl]amino]benzamide], the IC90 is 3.26 µM.

Regarding `C#CCn1cc(-c2cnc3c(Nc4ccc(C(=O)N5CCN(C(=O)C6(O)CCNCC6)CC5)c(CC)c4)nccn23)c(C(F)F)n1` [Example 755, (4-(4-((3-(3-(difluoromethyl)-1-(prop-2-yn-1-yl)-1H-pyrazol-4-yl)imidazo[1,2-a]pyrazin-8-yl)amino)-2-ethylbenzoyl)piperazin-1-yl)(4-hydroxypiperidin-4-yl) methanone], the IC90 amounted to 0.678 µM.
